# Assay results: US11092596B2, “Material and method to screen proteasome stimulators” (Purdue Research Foundation, priority 2017, dated 2021)
# Counter-ions that a name gives are not always drawn.
# Legend:
# [1] = biological target: T1, chymotrypsin-like activity of the 20S CP (Homo sapiens, UniProt P28074); assay: Kinetic assay, CT-L FRET reporter hydrolysis by purified 20S CP; assay type: biochemical; conditions: for increase in the rate of hydrolysis (CT-L FRET reporter): 9 nM 20S CP, vs basal
# T1 construct: 5 μL purified 20S proteasome (90 nM in Tris-HCl) was added to the control and test wells
# Description: (§1) Plate preparation for the kinetic assay was performed similarly for all assays. All 96-well plates contained the following in triplicate: reporter background, containing reporter only, and control wells, containing reporter and purified 20S CP. It was determined that each well will contain a total volume of 50 μL. To each well was added 40 μL of the coumarin or FRET reporters (in Tris-HCl, 50 mM, pH 7.7). To the reporter background wells was added 7.5 μL Tris-HCl and 2.5 μL of the solvent in which the compound of interest was dissolved or diluted. Similarly, to the control wells was added 2.5 μL Tris-HCl and 2.5 μL of the solvent in which the compound of interest was dissolved or diluted. To the test wells was added 2.5 μL Tris-HCl and 2.5 μL of the compound of interest at a predetermined concentration. Immediately prior to running the assay on the Synergy 4 Plate Reader, 5 μL purified 20S proteasome (90 nM in Tris-HCl) was added to the control and test wells.
# The Synergy 4 Plate Reader was set to heat the plate at 37° C. and read fluorescence every 2 min over a 40 min period. The excitation and emission wavelengths were set according to the reporter. For the FRET reporter, the excitation and emission wavelengths were set to 335 nm and 493 nm, respectively, corresponding to the excitation and emission wavelengths of the Edans fluorophore. For the coumarin reporter, the excitation and emission wavelengths were set to 380 nm and 460 nm, respectively.
# (§2) AM-404 was used as a positive control compound to test the dose-response screening capabilities of the CT-L FRET reporter. The following concentrations of AM-404 were tested in triplicate: 50, 25, and 12.5 μM. To each well was added 40 μL 20 μM CT-L FRET (in Tris-HCl, 50 mM, pH 7.7). To the reporter background wells was added 5 μL Tris-HCl and 5 μL 1:1 Tris-HCl:DMSO. Similarly, to the control wells was added 5 μL 1:1 Tris-HCl:DMSO. To the 50 μM AM-404 test wells was added 2.5 μL Tris-HCl and 2.5 μL 1000 μM AM-404 in DMSO. To the 25 μM AM-404 test wells was added 2.5 μL Tris-HCl and 2.5 μL 500 μM AM-404 in DMSO. To the 12.5 μM AM-404 test wells was added 2.5 μL Tris-HCl and 2.5 μL 250 μM AM-404 in DMSO. Immediately prior to running the assay on the Synergy 4 Plate Reader, 5 μL purified 20S proteasome (90 nM in Tris-HCl) was added to the control and test wells. The assay was performed using the Synergy 4 plate reader as described for the general screening kinetic assay procedure.
# as §2, with “Fenofibrate was” for “AM-404 was”, “a negative” for “a positive”, “of fenofibrate” for “of AM-404”, “μM fenofibrate” for “μM AM-404”, “procedure. […]” for “procedure.”
# [2] = biological target: T2, trypsin-like activity of the 20S CP (Homo sapiens, UniProt Q99436); assay: Kinetic assay, Bz-VGR-AMC reporter hydrolysis by purified 20S CP; assay type: biochemical; conditions: 500 μM SDS
# Description: as §1, with “To the test wells was added 2.5 μL Tris-HCl and 2.5 μL of the compound of interest at a predetermined concentration.” left out
# The Synergy 4 Plate Reader was set to heat the plate at 37° C. and read fluorescence every 2 min over a 40 min period. […]
# Stimulation of the 20S proteasome with SDS was determined using both the coumarin and FRET reporters for the chymotrypsin-like and trypsin-like activities of the 20S CP. […] Immediately prior to running the assay on the Synergy 4 Plate Reader, 5 μL purified 20S proteasome (90 nM in Tris-HCl) was added to the control and test wells. […]
# [3] = biological target: T2, trypsin-like activity of the 20S CP; assay: Kinetic assay, T-L FRET reporter hydrolysis by purified 20S CP; assay type: biochemical; conditions: 500 μM SDS
# Description: as §1
# (§3) The Synergy 4 Plate Reader was set to heat the plate at 37° C. and read fluorescence every 2 min over a 40 min period. The excitation and emission wavelengths were set according to the reporter. For the FRET reporter, the excitation and emission wavelengths were set to 335 nm and 493 nm, respectively, corresponding to the excitation and emission wavelengths of the Edans fluorophore. […]
# Stimulation of the 20S proteasome with SDS was determined using both the coumarin and FRET reporters for the chymotrypsin-like and trypsin-like activities of the 20S CP. […] Immediately prior to running the assay on the Synergy 4 Plate Reader, 5 μL purified 20S proteasome (90 nM in Tris-HCl) was added to the control and test wells. The assay was performed using the Synergy 4 plate reader as described for the general screening kinetic assay procedure. […]
# To each well was added 40 μL 20 μM T-L FRET reporter (in Tris-HCl, 50 mM, pH 7.7). […] Immediately prior to running the assay on the Synergy 4 Plate Reader, 5 μL purified 20S proteasome (90 nM in Tris-HCl) was added to the control and test wells.
# [4] = biological target: T1, chymotrypsin-like activity of the 20S CP; assay: Kinetic assay, Suc-LLVY-AMC reporter hydrolysis by purified 20S CP; assay type: biochemical
# Description: as §1, §3
# Sodium dodecyl sulfate (SDS) was used to test the effect stimulating the 20S proteasome has on the hydrolysis of the FRET reporters. The appropriate concentration of SDS to use in the kinetic assay was determined using the small chymotrypsin-like activity reporter, Suc-LLVY-AMC (SEQ ID NO: 4). […] In triplicate, the following final concentrations of SDS were analyzed for the effect each has on the activity of the 20S proteasome: 4000 μM, 2000 μM, 1000 μM, 500 μM, 250 μM, 125 μM, and 0 μM, the basal activity of the 20S proteasome. […] Immediately prior to reading the plate with the Synergy 4 plate reader, 5 μL purified 20S proteasome (90 nM in Tris-HCl) was added to the wells at a final concentration of 9 nM per well.
# The Synergy 4 Plate Reader was set to heat the plate at 37° C. and read fluorescence every 2 min over a 1 hr period. […] The resulting data in relative fluorescence units (RFU) was analyzed using GraphPad Prism and was plotted against time in minutes. […] Based on the resulting curve and the hyperbolic curve obtained using 1000 μM SDS (FIG. 11b), it was determined that 500 μM SDS was the appropriate concentration to use to test the effect stimulating the 20S proteasome has on the hydrolysis of the FRET reporters.
# Stimulation of the 20S proteasome with SDS was determined using both the coumarin and FRET reporters for the chymotrypsin-like and trypsin-like activities of the 20S CP. […]
# [5] = tested on: 26S proteasome; conditions: at concentrations as low as 5 μM; cited from earlier work
# [6] = biological target: 20S CP (Homo sapiens, UniProt P28074); conditions: in cellulo, Suc-LLVY-AMC reporter, previously reported; read-out: EC50 as 20S CP stimulator; cited from earlier work
# [7] = tested on: T3, Suc-LLVY-AMC
# T3 sequence: LLVY
# [8] = tested on: T4, chymotrypsin-like FRET reporter (CT-L FRET), Lys(Y1)-Met-Ser-Gly-Phe-Ala-Ala-Thr-Ala-Glu(Y2)-Gly
# T4 sequence: KMSGFAATAEG
compound,measurement,setting,value
CC(C)C[C@H](NC(=O)[C@H](Cc1ccccc1)NC(=O)c1cnccn1)B(O)O [bortezomib],decrease in the rate of hydrolysis of the CT-L FRET reporter,[1]; 2 μM bortezomib,40%
"O=C(O)c1cc(O)c2c(c1)[C@@H]([C@H]1c3cc(C(=O)O)cc(O)c3C(=O)c3c(O[C@@H]4O[C@H](CO)[C@@H](O)[C@H](O)[C@H]4O)cccc31)c1cccc(O[C@@H]3O[C@H](CO)[C@@H](O)[C@H](O)[C@H]3O)c1C2=O [Compound 4, Sennoside B]",validation of primary hits in triplicate,"[1]; 25 μM, newly purchased compound, CT-L FRET reporter",did not perform as it had in the initial screen
"CCCCCCCCCCCCOS(=O)(=O)[O-].[Na+] [SDS, sodium dodecyl sulfate]",increase in the rate of hydrolysis of Bz-VGR-AMC compared to basal activity,[2],2 fold
same,increase in the rate of hydrolysis of T-L FRET reporter compared to basal activity,[3],5 fold
same,"increase in the rate, CT-L FRET reporter",[1]; 500 μM SDS vs basal,8.3 fold
same,"average rate of hydrolysis, CT-L FRET reporter","[1]; 500 μM SDS, basal 2.9 ΔRFU/min",24 ΔRFU/min
same,"increase in the rate, Suc-LLVY-AMC reporter",[4]; 500 μM SDS vs basal,2.4 fold
same,"average rate of hydrolysis, Suc-LLVY-AMC reporter","[4]; 500 μM SDS, basal 60 ΔRFU/min",145 ΔRFU/min
CN(C)C(=O)C(CCN1CCC(O)(c2ccc(Cl)cc2)CC1)(c1ccccc1)c1ccccc1 [Loperamide HCl],stimulation of the 26S proteasome,[5],stimulate the 26S proteasome
CCCCC/C=C\C/C=C\C/C=C\C/C=C\CCCC(=O)Nc1ccc(O)cc1 [AM-404],increase in the rate of hydrolysis (CT-L FRET reporter),[1]; 12.5 μM compound (lowest concentration tested),4 fold
same,increase in the rate of hydrolysis (CT-L FRET reporter),[1]; 25.0 μM compound,5 fold
same,increase in the rate of hydrolysis (CT-L FRET reporter),[1]; 50.0 μM compound,7 fold
same,Mean Signal (Rate),"[1]; CT-L FRET reporter, 20S CP, basal 5.300",40.46
same,dose dependence of 20S CP stimulation,"[1]; CT-L FRET reporter, dose response curve",dose-dependent
same,EC50,[6],~32 µM
20S core particle (20S CP) of the proteasome,"rate of hydrolysis (average basal level, no stimulator)",[7],60 ΔRFU/min
same,"Mean Signal (Rate), Basal (background) activity of the 20S CP",[8],5.3
same,"rate of hydrolysis (average basal level, no stimulator)",[8],2.9 ΔRFU/min
